Experimental findings from US9598365B2, “Method for synthesizing cycloalkanyl[b]indoles, cycloalkanyl[b]benzofurans, cycloalkanyl[b]benzothiophenes, compounds and methods of use” (Trustees of Dartmouth College, priority 2012, dated 2017) are described below.

What all share (format): cell-based
In assay [1] the test system is hNCI-H716. As to the kind of experiment: hNCI-H716 GLP-1 secretion. Particulars: GLP-1 secretion; for activation at 2 µM / activation at 20 µM: single point, read-out: Primary SP hNCI (% Stim.); for EC50: concentration response curve, read-out: Primary CRC (EC50, μM) hNCI. The source says: Selected compounds of this invention were screened for K-Ras Wnt synthetic lethal, anti-angiogenic activity, Wnt pathway modulatory activity, insulin and GLP-1 secretion modulatory activity, GPR119 receptor agonist activity, mGlu2R antagonist activity, CGRP receptor antagonist activity, Apelin receptor agonist activity and hexokinase 2 inhibitory activity using the PD^2 and TD^2 Screening Panel (Eli Lilly & Company). See Lee, et al. (2011) J. Biomol. Screen. 16:588-602.
(§1) In light of the above results, additional compounds (Table 7) were prepared and phenotypic assays were carried out using hNCI-H716 and mSTC-1 cell lines to monitor GLP-1 secretion (single point (SP) and concentration response curves (CRC)) (Table 8), as well as a secondary assay with pituitary cells (Table 9).

Assay [2] relates to mSTC-1. Description: mSTC-1 GLP-1 secretion. Particulars: for activation at 2 µM / activation at 20 µM: single point, read-out: Primary SP mSTC (% Stim.); for EC50: concentration response curve, read-out: Primary CRC (EC50, μM) mSTC. The procedure: as §1
In assay [3] the test system is hNCI-H716. As to the kind of experiment: hNCI basal LDH secretion. Particulars: read-out: Primary CRC (EC50, μM) hNCI Basal. How it is done: as §1
For assay [4], the system named is mSTC-1. As to the kind of experiment: mSTC LDH secretion. The note with it: read-out: Primary CRC (EC50, μM) mSTC LDH. The procedure:
as §1

Several values for one entry are separate records, joined by “and”; a condition that tells them apart may be missing. Equal entries are not always repeated.

Turning to `CC1(C)C(=O)C[C@]23CCCC[C@]12N(Cc1ccccc1)c1ccccc13` [Compound 25], the activation at 2 µM was found to be 0.6% in the assay with hNCI-H716 [1] and 78.5% in the assay with mSTC-1 [2]. The activation at 20 µM in the assay with hNCI-H716 [1] was -1.1%; with mSTC-1 [2], 51.1%. Also, the EC50 in the assay on hNCI-H716 [1] is above 40 µM; in the assay on mSTC-1 [2], 0.2 µM; in the assay on hNCI-H716 [3], above 40 µM; in the assay on mSTC-1 [4], above 40 µM.

With `CC1(C)C(=O)C[C@@]2(C)c3ccccc3N(Cc3ccccc3)[C@@]12C` [Compound 30], the activation at 2 µM in the assay with hNCI-H716 [1] stood at 3.1%; in the assay on mSTC-1 [2], 49.9%. Moreover, the activation at 20 µM in the assay with hNCI-H716 [1] was -0.2%; with mSTC-1 [2], 49.9%. Moreover, the EC50 was above 40 µM in the assay with hNCI-H716 [1]; 0.85 µM and 0.51 µM in the assay on mSTC-1 [2]; above 40 µM with hNCI-H716 [3]; above 40 µM with mSTC-1 [4].

`CN1c2ccccc2[C@]2(C)C3CCC(C3=O)[C@H]12` (stereo partly drawn) [Compound 23]: the values for the activation at 2 µM with hNCI-H716 [1] and with mSTC-1 [2] were 6.4% and 6.9%, respectively. The activation at 20 µM in the assay with hNCI-H716 [1] is -1.1%; with mSTC-1 [2], 71.3%. The EC50 with hNCI-H716 [1] is above 40 µM; in the assay on mSTC-1 [2], 6.18 µM; in the assay with hNCI-H716 [3], above 40 µM; in the assay on mSTC-1 [4], above 40 µM.

Turning to `O=C1C2CCC1[C@@]1(CCO)c3ccccc3N(Cc3ccccc3)[C@@H]21` (stereo partly drawn) [Compound 24], the activation at 2 µM in the assay on hNCI-H716 [1] is 1%; in the assay on mSTC-1 [2] it was -3.3%. Also, the activation at 20 µM in the assay with hNCI-H716 [1] was 4.6%; with mSTC-1 [2] it was 47.9%. The EC50 in the assay on hNCI-H716 [1] is above 40 µM; with mSTC-1 [2] it was 15.2 µM and 13.5 µM; in the assay with hNCI-H716 [3], above 40 µM; in the assay on mSTC-1 [4] it was above 40 µM.

Take `Cc1ccc(C2CC(C)(C)c3c2[nH]c2ccc(C)cc32)cc1` (stereo not drawn) [Compound 19d]: the activation at 2 µM stood at 0% in the assay with hNCI-H716 [1] and 10.3% with mSTC-1 [2]. In addition, the activation at 20 µM came out at 0% in the assay on hNCI-H716 [1] and 53.6% with mSTC-1 [2].

What is called EC50 is the concentration at which the effect is half-maximal.
